Molecules are shown by their SMILES.

The first assay has as its target T1, Aromatase (Homo sapiens, UniProt P11511).
T1 sequence (P11511 whole entry): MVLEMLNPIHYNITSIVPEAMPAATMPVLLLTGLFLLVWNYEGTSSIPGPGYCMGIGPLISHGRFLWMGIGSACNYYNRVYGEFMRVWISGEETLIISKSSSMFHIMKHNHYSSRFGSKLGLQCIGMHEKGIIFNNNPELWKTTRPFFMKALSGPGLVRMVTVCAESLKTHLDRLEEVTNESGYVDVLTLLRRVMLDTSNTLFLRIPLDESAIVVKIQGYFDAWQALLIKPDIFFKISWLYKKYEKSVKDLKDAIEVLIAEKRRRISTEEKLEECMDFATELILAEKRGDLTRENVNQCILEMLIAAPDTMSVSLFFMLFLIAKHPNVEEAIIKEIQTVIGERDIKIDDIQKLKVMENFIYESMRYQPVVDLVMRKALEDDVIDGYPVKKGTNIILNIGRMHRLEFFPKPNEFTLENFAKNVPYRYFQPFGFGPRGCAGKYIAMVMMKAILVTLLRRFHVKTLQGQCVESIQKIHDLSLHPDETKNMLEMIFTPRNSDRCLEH
Conditions: not given; call rule not given here
On to `O=C1c2ccccc2OC(O)C1c1ccccc1` (centres undefined), for which the half-inhibitory concentration (IC50) (in general, the midpoint of a concentration-inhibition curve) was determined as 170 µM. Same read-out and setting: as for `O=C1c2ccccc2OCC1c1ccc(O)cc1` (centres undefined), the figure is 160 µM. On the same count and under the same terms, with `O=C1c2ccccc2OCC1c1ccc(O)c(O)c1` (centres undefined) the figure was at least 200 µM.

The target in the next assay is T1, Aromatase. Put plainly: Inhibition of human recombinant aromatase expressed in baculovirus/insect cells using 7-methoxy-trifluoromethylcoumarin as substrate after 30 mins by fluorescence-based spectrophotometry.
Conditions: not given
Turning to `O=C1c2ccccc2OCC1c1ccc(-c2ccccc2)cc1` (racemic), the IC50 result was “Not Active”. On to `O=C1c2ccccc2OCC1c1cc2ccccc2c2ccccc12` (racemic), for which the IC50 entry is “Not Active”.

Staying with this assay, now noted: read-out: IC50.
On to `COc1ccc2c(c1)OCC(c1ccccc1)C2=O` (racemic), for which the IC50 was 41 µM.

`Cc1ccc2c(c1)C(=O)C(c1ccccc1)CO2` (racemic): the 50% inhibitory concentration (IC50) amounted to 44 µM. Still for that read-out and setting: as for `Cc1ccc2c(c1)OCC(c1ccccc1)C2=O` (racemic), the figure is 18 µM. As to `Cc1cccc(C2COc3ccccc3C2=O)c1` (racemic), the 50% inhibitory concentration (IC50) turned out to be 20 µM. For `Cc1ccc(C2COc3ccccc3C2=O)cc1` (racemic), the IC50 was 41 µM. On the same count and under the same terms, as for `O=C1c2c(ccc3ccccc23)OCC1c1ccccc1` (racemic), the figure is 20 µM; as for `O=C1c2ccccc2OCC1c1ccc(Oc2ccccc2)cc1` (racemic), 2.4 µM. Still for that read-out and setting: as for `COc1ccc2c(c1)C(=O)C(c1ccccc1)CO2` (racemic), the figure is 0.26 µM. The same measure, in the same setting: with `COc1ccccc1C1COc2ccccc2C1=O` (racemic) the figure was 97 µM; with `COc1cccc(C2COc3ccccc3C2=O)c1` (racemic), 99 µM; with `COc1ccc(C2COc3ccccc3C2=O)cc1` (racemic), 24 µM.

In the case of `COc1cc(OC)cc(C2COc3ccccc3C2=O)c1` (racemic), the IC50 is 11 µM.

With `O=C1c2ccccc2OCC1c1ccsc1` (racemic), the IC50 was determined as 30 µM. Still for that read-out and setting: as for `O=C1c2ccccc2OCC1c1cccnc1` (racemic), the figure is 5.8 µM. On the same count and under the same terms, as for `O=C1c2cc(F)ccc2OCC1c1ccccc1` (racemic), the figure is 32 µM; as for `O=C1c2cc(Cl)ccc2OCC1c1ccccc1` (racemic), 5.1 µM; as for `O=C1c2cc(Br)ccc2OCC1c1ccccc1` (racemic), 29 µM. Still for that read-out and setting: with `CC(C)(C)c1ccc2c(c1)C(=O)C(c1ccccc1)CO2` (racemic) the figure was 61 µM; with `O=C1c2ccccc2OCC1c1ccccc1` (racemic) [ISOFLAVANONE], 29 µM.

(Values after ChEMBL document CHEMBL2010679, “Development of a new class of aromatase inhibitors: design, synthesis and inhibitory activity of 3-phenylchroman-4-one (isoflavanone) derivatives” (Bioorg Med Chem, 2012).)
